These results are taken from patent publication US12304898B2, “Quinolyl-containing compound and pharmaceutical composition, and use thereof” (PrimeGene (Beijing) Co., Ltd., priority 2019, dated 2025).

The term IC50 denotes the point on the concentration scale where inhibition reaches its midpoint. Broadly, the AUC(0-inf) is the area under the concentration-time curve extrapolated to infinity. Usually Cmax stands for the peak of the concentration-time curve. As usually defined, the Tmax is the time at which the peak concentration occurs. Usually half-life stands for the time in which the quantity being followed falls by half. Read a high half-life as slow decline.

Molecules are shown by their SMILES.

Sequence of HDAC6 (Q9UBN7 whole entry): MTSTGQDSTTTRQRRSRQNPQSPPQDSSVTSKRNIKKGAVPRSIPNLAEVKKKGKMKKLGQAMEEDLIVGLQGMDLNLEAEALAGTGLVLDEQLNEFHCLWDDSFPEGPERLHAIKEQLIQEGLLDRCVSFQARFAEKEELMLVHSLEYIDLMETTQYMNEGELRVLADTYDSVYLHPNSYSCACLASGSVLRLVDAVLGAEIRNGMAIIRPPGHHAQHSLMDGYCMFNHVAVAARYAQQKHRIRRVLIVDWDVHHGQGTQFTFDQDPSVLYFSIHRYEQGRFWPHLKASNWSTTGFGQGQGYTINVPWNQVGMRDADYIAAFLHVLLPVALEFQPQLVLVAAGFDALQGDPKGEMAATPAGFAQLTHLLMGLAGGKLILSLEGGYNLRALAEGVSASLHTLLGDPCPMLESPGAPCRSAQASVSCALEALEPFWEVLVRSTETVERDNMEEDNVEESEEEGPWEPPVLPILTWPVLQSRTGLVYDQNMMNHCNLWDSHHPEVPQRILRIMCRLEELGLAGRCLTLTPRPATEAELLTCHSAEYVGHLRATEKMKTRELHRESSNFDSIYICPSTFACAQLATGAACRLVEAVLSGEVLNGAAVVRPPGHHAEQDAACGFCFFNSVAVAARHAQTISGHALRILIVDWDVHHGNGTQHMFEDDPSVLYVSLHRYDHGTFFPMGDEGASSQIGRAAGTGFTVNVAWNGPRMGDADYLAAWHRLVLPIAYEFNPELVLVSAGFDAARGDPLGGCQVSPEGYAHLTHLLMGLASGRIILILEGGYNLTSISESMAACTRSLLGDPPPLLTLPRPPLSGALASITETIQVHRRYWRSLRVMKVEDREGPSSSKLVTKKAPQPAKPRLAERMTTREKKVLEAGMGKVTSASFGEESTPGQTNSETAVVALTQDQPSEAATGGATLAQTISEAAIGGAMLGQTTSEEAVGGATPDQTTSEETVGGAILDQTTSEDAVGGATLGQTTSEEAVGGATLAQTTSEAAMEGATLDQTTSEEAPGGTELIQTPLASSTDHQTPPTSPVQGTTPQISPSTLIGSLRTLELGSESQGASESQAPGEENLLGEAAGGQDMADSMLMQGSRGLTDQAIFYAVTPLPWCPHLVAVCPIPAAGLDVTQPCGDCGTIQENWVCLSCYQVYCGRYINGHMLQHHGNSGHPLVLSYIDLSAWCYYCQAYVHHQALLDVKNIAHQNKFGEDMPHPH

For one data set, the target named is HDAC6 (Homo sapiens (Human), UniProt Q9UBN7). The data set can be described thus: HDAC6 fluorescence analysis, inhibition of HDAC6 activity. It is filed as biochemical. The following applies: HDAC6 0.3 nM solution, substrate 15 μM, fluorescence readout; read-out: IC50, inhibitory effect on HDAC6. As to the method: HDAC6 fluorescence analysis method was used to detect the inhibitory effect of the compounds on the activity of HDAC6. The specific operation is as follows:
Prepare a 10 mM stock solution of a compound with DMSO. Take 10 μl of stock solution and dilute with 90 μl DMSO to become a 1 mM working solution. […] Add 3 μl of each concentration to 197 μl reaction buffer (20 mM Hepes pH 8.0, 137 mM NaCl, 2.7 mM KCl, 1 mM MgCl2, 0.05% BSA, 0.5 mM TCEP), mix well and add 10 μl to a 384-well plate. In the final reaction system, the concentrations of the compound were 10 μM to 0.51 nM. Duplicate, and add 10 μl 3XHDAC solution (BPS, Cat. 50006, 0.3 nM) to each well, followed by incubating at 23° C. for 20 minutes. Then, add 3× substrate solution (Anaspec, Cat. 61855, 15 μM), centrifuge to mix, and incubate at 23° C. for 90 minutes. Add 30 μl trypsin/SAHA mixture (20 mM Hepes pH 8.0, 100 mM NaCl, 10 mM SAHA, 0.01 mg/ml trypsin), incubate at 23° C. for 60 minutes to terminate the reaction. Finally, read fluorescence data by Envision (390 nm excitation, 460 nm emission). […] Finally, analyze the data by XLfit5 software and calculate the IC50 value of the compound. Vorinostat (SAHA) was a positive reference compound.
For `COc1cc2c(Oc3ccc(NC(=O)C4(C(=O)Nc5ccc(F)cc5)CC4)cc3F)ccnc2cc1OCCCCCCCS` [Example 13, N-(3-fluoro-4-((7-(7-mercaptoheptyloxy)-6-methoxyquinolin-4-yl)oxy)phenyl)-N-(4-fluorophenyl) cyclopropane-1,1-diformamide], the IC50 amounted to 18 nM.

For the molecule `COc1cc2nccc(Oc3ccc(NC(=O)C4(C(=O)Nc5ccc(F)cc5)CC4)cc3)c2cc1OC` [Cabozantinib, reference compound], the IC50 is greater than 10000 nM.

Tested on in another data set: not listed separately
Put plainly: Pharmacokinetic experiment in rats after intragastric administration. It is filed as in vivo. The following applies: rat, po, female SD rats, 10 mg/kg, plasma. The method, then:
The female SD rats were divided into groups, 3 rats in each group, and the example compounds 10, 12, 24, 57, 61, 89, 90, 93, 94, 96 (10 mg/kg) were administered by intragastric administration. Fasting overnight before administration, and the fasting time was from 10 hours before administration to 4 hours after administration. Blood was collected at 0.25, 0.5, 1, 2, 4, 8 and 24 hours after administration. Small animal anesthesia machine was used for isoflurane anesthesia. After that, 0.3 mL of whole blood was collected from the fundus venous plexus and placed in a heparin anticoagulation tube. The sample was centrifuged at 4° C., 4000 rpm, for 5 minutes, and the plasma was transferred to a centrifuge tube, and stored at −80° C. until analysis. The plasma sample was extracted by protein precipitation method, and the extract was processed and analyzed by LC/MS/MS.
As for `COc1cc2c(Oc3ccc(NC(=O)C4(C(=O)Nc5ccc(F)cc5)CC4)cc3F)ccnc2cc1OCCCCCNC(=O)CSC(=O)[C@@H](Cc1cn(C)c2ccccc12)NC(C)=O` [Example 94, S-(2-((5-((4-(2-Fluoro-4-(1-((4-fluorophenyl)carbamoyl)cyclopropane-1-carboxamido)phenoxy)-6-methoxyquinolin-7-yl)oxy)pentyl)amino)-2-oxo-ethyl)-(R)-2-acetylamino-3-(1-methyl-1H-indol-3-yl)thiopropionate], the total exposure AUC(0-inf) stood at 499 ng·h/mL, the concentration peaked (Cmax) at 289 ng/mL, the Tmax turned out to be 0.5 h and the half-life was 6.14 h.

Regarding `CCCCCCCC(=O)SCC(=O)NCCCCCOc1cc2nccc(Oc3ccc(NC(=O)C4(C(=O)Nc5ccc(F)cc5)CC4)cc3F)c2cc1OC` [Example 90], the AUC(0-inf) was 689 ng·h/mL, the peak level (Cmax) was 852 ng/mL, the Tmax amounted to 0.333 h and the half-life was 4.25 h.

On to `COc1cc2c(Oc3ccc(NC(=O)C4(C(=O)Nc5ccc(F)cc5)CC4)cc3F)ccnc2cc1OCCCCNC(=O)CSC(C)=O` [Example 61], for which the AUC(0-inf) worked out at 175 ng·h/mL, the Cmax was found to be 121 ng/mL, the Tmax was determined as 0.5 h and the half-life is 1.84 h.

On to `COc1cc2c(Oc3ccc(NC(=O)C4(C(=O)Nc5ccc(F)cc5)CC4)cc3F)ccnc2cc1OCCCCCNC(=O)CSC(=O)C(C)(C)C` [Example 89, S-(2-((5-((4-(2-fluoro-4-(1-((4-fluorophenyl)carbamoyl)cyclopropane-1-carboxamido)phenoxy)-6-methoxyquinolin-7-yl)oxo)phenyl)amino)-2-oxo-ethyl)2,2-dimethylthiopropionate], for which the AUC(0-inf) stood at 1650 ng·h/mL, the peak level (Cmax) was 1000 ng/mL, the time to peak (Tmax) stood at 0.833 h and the half-life was 5.94 h.

As for `COc1cc2c(Oc3ccc(NC(=O)C4(C(=O)Nc5ccc(F)cc5)CC4)cc3F)ccnc2cc1OCCCCCNC(=O)CSSC` [Example 96, N-(3-fluoro-4-((6-methoxy-7-((5-(2-(methyldisulfanyl)acetylamino)pentyl)oxy)quinolin-4-yl)oxy)phenyl)-N-(4-fluorophenyl)cyclopropyl-1,1-diformamide], the AUC(0-inf) came to 1040 ng·h/mL, the Cmax amounted to 724 ng/mL, the Tmax came out at 0.417 h and the half-life was 6.92 h.

On to `COc1cc2c(Oc3ccc(NC(=O)C4(C(=O)Nc5ccc(F)cc5)CC4)cc3F)ccnc2cc1OCCCCCCSC(C)=O` [Example 10, S-(6-((4-(2-fluoro-4-(1-((4-fluorophenyl)aminoformyl)cyclopropane-1-carboxamido)phenoxy)-6-methoxyquinolin-7-yl)oxy)hexyl)-acetylthioester], for which the AUC(0-inf) is 468 ng·h/mL, the concentration peaked (Cmax) at 377 ng/mL, the Tmax was 0.833 h and the half-life was 1.24 h.

With `COc1cc2c(Oc3ccc(NC(=O)C4(C(=O)Nc5ccc(F)cc5)CC4)cc3F)ccnc2cc1OCCCCCNC(=O)CSC(C)=O` [Example 57, S-(2-((5-((4-(2-fluoro-4-(1-((4-fluorophenyl)carbamoyl)cyclopropane-1-carboxamido)phenoxy)-6-methoxyquinolin-7-yl)oxy)pentyl)amino)-2-oxo-ethyl)thioacetate], the AUC(0-inf) worked out at 2790 ng·h/mL, the concentration peaked (Cmax) at 1590 ng/mL, the Tmax is 0.33 h and the half-life was 6.42 h.

As for `COc1cc2c(Oc3ccc(NC(=O)C4(C(=O)Nc5ccc(F)cc5)CC4)cc3F)ccnc2cc1OCCCCCNC(=O)CSC(=O)[C@H](N)Cc1cn(C)c2ccccc12` [Example 93, S-(2-((5-((4-(2-fluoro-4-(1-((4-fluorophenyl)carbamoyl)cyclopropane-1-carboxamido)phenoxy)-6-methoxyquinolin-7-yl)oxy)pentyl)amino)-2-oxo-ethyl)-(R)-2-amino-3-(1-methyl-1H-indol-3-yl)thiopropionate benzenesulfonate], the AUC(0-inf) amounted to 790 ng·h/mL, the Cmax was determined as 429 ng/mL, the Tmax came to 0.667 h and the half-life was 5.49 h.

Consider `COc1cc2c(Oc3ccc(NC(=O)C4(C(=O)Nc5ccc(F)cc5)CC4)cc3F)ccnc2cc1OC/C=C/CCCCSC(C)=O` [Example 24, (E)-S-(7-((4-(2-fluoro-4-(1-((4-fluorophenyl)aminoformyl)cyclopropane-1-carbamoyl)phenoxy)-6-methoxyquinolin-7-yl)oxy)heptyl-5-en-1-yl)acetylthio ester], for which the AUC(0-inf) stood at 1070 ng·h/mL, the Cmax worked out at 430 ng/mL, the Tmax is 1.33 h and the half-life was 6.69 h.

A further data set deals with VEGFR2 (KDR) (Homo sapiens (Human), UniProt P35968). The data set can be described thus: VEGFR2 (KDR) mobility shift assay. The class given is biochemical. As to conditions: VEGFR2 0.5 nM, ATP 95 μM, read-out: IC50, inhibitory effect on kinase VEGFR2. The method, then: Detect compounds on VEGFR2 (KDR) by mobility shift assay. The initial test concentration of a compound was 1000 nM, 3 times dilution, 10 concentrations, and detection in duplicate. Nintedanib (Selleckchem, Cat. S1010) was used as the positive control compound. The operation method was briefly described as follows: kinase VEGFR2 (Carna, Cat. 08-191) at the final concentration of 0.5 nM and the test compound were mixed in the Optiplate-384F well plate and incubated for 10 minutes at room temperature. Then, ATP at a final concentration of 95 μM and 3 μM Kinase substrate 22 (Gill Biochemical (glbiochem), Cat. 112393) were added. After mixing, react at room temperature for 30 minutes. Add stop detection solution to terminate the reaction and read the conversion rate with Caliper EZ ReaderlI.
Sequence of VEGFR2 (KDR) (P35968 790-1356): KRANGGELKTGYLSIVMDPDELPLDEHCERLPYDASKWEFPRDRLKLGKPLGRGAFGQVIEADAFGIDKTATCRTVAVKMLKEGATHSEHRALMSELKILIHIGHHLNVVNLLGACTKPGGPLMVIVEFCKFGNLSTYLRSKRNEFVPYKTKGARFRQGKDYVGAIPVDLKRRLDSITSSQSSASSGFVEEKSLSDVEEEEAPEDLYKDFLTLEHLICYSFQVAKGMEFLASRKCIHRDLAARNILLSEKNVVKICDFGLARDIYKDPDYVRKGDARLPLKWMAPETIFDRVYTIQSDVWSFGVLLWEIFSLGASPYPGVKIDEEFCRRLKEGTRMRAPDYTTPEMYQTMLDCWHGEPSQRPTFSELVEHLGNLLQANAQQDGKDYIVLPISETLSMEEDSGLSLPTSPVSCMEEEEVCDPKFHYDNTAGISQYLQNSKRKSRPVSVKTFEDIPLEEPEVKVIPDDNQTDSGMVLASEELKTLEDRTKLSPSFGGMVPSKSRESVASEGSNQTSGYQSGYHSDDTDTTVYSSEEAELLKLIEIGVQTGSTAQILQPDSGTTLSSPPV
Wherein, Conversion %_sample refers to the conversion rate reading of the sample; Conversion %_min: the average value of the negative control wells, which represents the conversion rate readings of the wells without enzyme activity; Conversion %_max: the average value of the positive control wells, represents the conversion rate readings of the wells without compound inhibition.
Fitting the dose-response curve: Take the log of the concentration as the X-axis, and the percentage of inhibition rate as the Y-axis. The dose response curve was fitted by the analysis software GraphPad Prism 5 with log(inhibitor) vs. response—Variable slope to obtain the inhibitory activity (IC50) of each compound.
Regarding `COc1cc2c(Oc3ccc(NC(=O)C4(C(=O)Nc5ccc(F)cc5)CC4)cc3F)ccnc2cc1OCCCSc1nnc(S)s1` [Example 54, N-(3-fluoro-4-((7-(3-((5-thio-1,3,4-trithiazol-2-yl)sulfanyl)propoxy)-6-methoxyquinolin-4-yl)oxy)phenyl)-N-(4-fluorophenyl)cyclopropane-1,1-diformamide], the IC50 was found to be 54 nM.

On to `COc1cc2c(Oc3ccc(NC(=O)C4(C(=O)Nc5ccc(F)cc5)CC4)cc3F)ccnc2cc1OC/C=C/CCCS` [Example 27, (E)-N-(3-fluoro-4-((7-((6-mercaptohexyl-2-en-1-yl)oxy)-6-methoxyquinolin-4-yl)oxy)phenyl)-N-(4-fluorophenyl)cyclopropane-1,1-dimethylamid], for which the IC50 turned out to be 33 nM.

Consider `COc1cc2c(Oc3ccc(NC(=O)C4(C(=O)Nc5ccc(F)cc5)CC4)cc3F)ccnc2cc1OCCCCS` [Example 7, N-(3-fluoro-4-((7-(4-mercaptobutoxy)-6-methoxyquinolin-4-yl)oxy)phenyl)-N-(4-fluorophenyl) cyclopropane-1,1-diformamide], for which the IC50 is 57 nM.

Consider `COc1cc2c(Oc3ccc(NC(=O)C4(C(=O)Nc5ccc(F)cc5)CC4)cc3F)ccnc2cc1OCCCCSC(C)=O` [Example 6, S-(4-((4-(2-Fluoro-4-(1-((4-fluorophenyl)aminoformyl)cyclopropane-1-carboxamido)phenoxy)-6-methoxyquinolin-7-yl)oxy)butyl)-acetylthioester], for which the IC50 amounted to 79 nM.

For `COc1cc2c(Oc3ccc(NC(=O)C4(C(=O)Nc5ccc(F)cc5)CC4)cc3)ccnc2cc1OCCCCCNC(=O)CSC(C)=O` [Example 65], the IC50 stood at 13 nM.

Consider `CC(=O)SCCCCCCOc1cc2nccc(Oc3ccc(NC(=O)NC4CC4)c(Cl)c3)c2cc1C(N)=O` [Example 86, S-(7-((6-carbamoyl-4-(3-chloro-4-(3-cyclopropylurea)phenoxy)quinolin-7-yl)oxy)hexyl)thioacetate], for which the IC50 stood at 2.6 nM.

Take `COc1cc2c(Oc3ccc(NC(=O)C4(C(=O)Nc5ccc(F)cc5)CC4)cc3F)ccnc2cc1OCCNC(=O)NCCSC(C)=O` [Example 55]: the IC50 was found to be 30 nM.
